We go through six molecules from ChEMBL document CHEMBL1141158, “New 5-hydroxytryptamine(1A) receptor ligands containing a norbornene nucleus: synthesis and in vitro pharmacological evaluation” (J Med Chem, 2005).

SMILES strings stand for the structures. pKi: −log10 of the molar value.

The target in assay [1] is T1, 5-hydroxytryptamine receptor 1A (Rattus norvegicus, UniProt P19327).
T1 sequence (P19327 whole entry): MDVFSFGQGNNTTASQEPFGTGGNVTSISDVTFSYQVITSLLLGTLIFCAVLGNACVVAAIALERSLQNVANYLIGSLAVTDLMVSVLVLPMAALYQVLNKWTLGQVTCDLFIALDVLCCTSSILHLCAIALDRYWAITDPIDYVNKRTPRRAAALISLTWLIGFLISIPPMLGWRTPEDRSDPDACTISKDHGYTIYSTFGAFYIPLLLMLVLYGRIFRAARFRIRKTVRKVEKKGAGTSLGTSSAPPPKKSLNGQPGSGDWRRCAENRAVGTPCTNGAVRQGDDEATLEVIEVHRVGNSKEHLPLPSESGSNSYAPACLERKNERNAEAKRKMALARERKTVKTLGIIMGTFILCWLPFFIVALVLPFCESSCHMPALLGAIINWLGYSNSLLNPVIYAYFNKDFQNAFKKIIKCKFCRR
In words: Inhibition of [3H]8-OH-DPAT binding to Serotonin 5-HT1A receptor from rat brain cortex.

The target in assay [2] is 5-hydroxytryptamine receptor 2A (Rattus norvegicus, UniProt P14842). Nature of the assay: Inhibition of 0.4 nM [3H]ketanserin binding to Serotonin 5-HT2A receptor from rat brain cortex.
5-hydroxytryptamine receptor 2A, sequence (P14842 whole entry): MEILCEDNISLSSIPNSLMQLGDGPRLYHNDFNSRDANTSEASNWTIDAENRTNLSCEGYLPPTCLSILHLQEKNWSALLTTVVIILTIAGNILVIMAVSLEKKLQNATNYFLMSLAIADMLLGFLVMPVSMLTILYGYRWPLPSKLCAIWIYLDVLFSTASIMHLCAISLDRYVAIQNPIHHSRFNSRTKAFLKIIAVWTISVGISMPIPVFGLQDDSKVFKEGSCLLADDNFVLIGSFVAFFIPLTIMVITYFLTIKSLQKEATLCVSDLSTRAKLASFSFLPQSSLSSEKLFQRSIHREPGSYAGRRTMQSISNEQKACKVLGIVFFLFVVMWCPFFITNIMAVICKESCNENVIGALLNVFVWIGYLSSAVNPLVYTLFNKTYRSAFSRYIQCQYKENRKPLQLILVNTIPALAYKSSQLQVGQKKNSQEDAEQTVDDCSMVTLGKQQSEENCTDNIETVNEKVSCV
The target in assay [3] is T2, 5-hydroxytryptamine receptor 2C (Rattus norvegicus, UniProt P08909).
T2 sequence (P08909 whole entry): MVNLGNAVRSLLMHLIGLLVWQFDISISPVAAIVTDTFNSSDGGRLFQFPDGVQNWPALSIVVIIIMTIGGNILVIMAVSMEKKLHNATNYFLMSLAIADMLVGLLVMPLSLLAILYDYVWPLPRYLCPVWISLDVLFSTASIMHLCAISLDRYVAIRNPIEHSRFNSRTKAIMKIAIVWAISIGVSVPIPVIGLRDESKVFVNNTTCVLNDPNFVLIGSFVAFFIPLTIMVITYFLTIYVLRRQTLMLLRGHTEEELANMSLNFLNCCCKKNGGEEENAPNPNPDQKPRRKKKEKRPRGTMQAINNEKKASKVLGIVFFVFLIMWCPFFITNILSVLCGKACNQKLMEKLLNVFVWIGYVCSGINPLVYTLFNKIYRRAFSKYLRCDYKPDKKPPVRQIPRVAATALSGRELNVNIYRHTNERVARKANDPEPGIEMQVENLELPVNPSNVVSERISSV
Nature of the assay: Inhibition of 1 nM [3H]mesulergine binding to Serotonin 5-HT2C receptor from rat brain cortex.

Turning to `O=C1C2C3C=CC(C3)C2C(=O)N1OCCN1CCN(c2ncccn2)CC1` (configuration not stated), the pKi in assay [1] was 6.42; in assay [2], under 5.00.
`O=C1C2C3C=CC(C3)C2C(=O)N1OCCCN1CCN(c2ccccn2)CC1` (configuration not stated): the pKi was 7.52 in assay [1], under 5.00 in assay [3] and under 5.00 in assay [2].
For the molecule `COc1ccccc1N1CCN(CCON2C(=O)C3C4C=CC(C4)C3C2=O)CC1` (configuration not stated), the pKi in assay [1] is 7.35; in assay [3], under 5.00; in assay [2], under 5.00.
With `O=C1C2C3C=CC(C3)C2C(=O)N1OCCCN1CCN(c2ncccn2)CC1` (configuration not stated), the results for the negative logarithm of the Ki (pKi) in assay [1], in assay [3] and in assay [2] were 7.31, under 5.00 and 6.93, respectively.
The corresponding values for `O=C1C2C3C=CC(C3)C2C(=O)N1OCCN1CCN(c2cccc(Cl)c2)CC1` (configuration not stated) are 7.57, under 5.00 and 5.57.
With `O=C1C2C3C=CC(C3)C2C(=O)N1OCCN1CCN(c2ccccn2)CC1` (configuration not stated), the values for the pKi in assay [1], in assay [3] and in assay [2] were 6.42, under 5.00 and 5.45, respectively.
